The structures appear in SMILES notation.

The first series in a line: Measurement of logP values by HPLC on reversed phase columns (EEC directive 79/831 Annex V.A8). The settings on record: method [b]: LC-MS at pH 2.7 with 0.1% formic acid in water and acetonitrile, linear gradient 10% to 95% acetonitrile. In kind it is physicochemical.
Take `CCCCCCOC(=O)Nc1nc(CON=C(c2ccccc2)c2ccnn2C)cs1` [Example 59]: the logp was 4.59^[b].
The same measure, in the same setting: the same measure for `CCCCCOC(=O)Nc1nc(CON=C(c2ccccc2)c2ccnn2C)cs1` [Example 60]: 4.16^[b].
The same measure, in the same setting: the same measure for `C#CCCOC(=O)Nc1nc(CON=C(c2ccccc2)c2ccnn2C)cs1` [Example 61]: 3.11^[b].
The same measure, in the same setting: under `Cn1nccc1C(=NOCc1csc(C#CC2CC2)n1)c1ccccc1` [Example 62] stands 3.87^[b].
For `Cn1nccc1C(=NOCc1csc(NC(=O)OC(C)(C)C)n1)c1ccccc1` [Example 63], the logp is 3.69^[b].
Regarding `CCOC(=O)Nc1nc(CON=C(c2ccccc2)c2ccnn2C)cs1` [Example 64], the logp is 3^[b].

Staying with this series, now noted: reversed phase HPLC column; HCOOH (formic acid) method; read-out: log P(HCOOH).
As for `Cc1nsnc1C(=NO)c1ccccc1` [N-hydroxy-1-(4-methyl-1,2,5-thiadiazol-3-yl)-1-phenylmethanimine], the chromatographic logP amounted to 2.26.
Still for that read-out and setting: the same measure for `CCCCCCN(C(=O)OC(C)(C)C)c1cccc(CO)n1` [tert-butyl hexyl[6-(hydroxymethyl)pyridin-2-yl]carbamate]: 3.94.

These data come from patent publication US8580799B2 (priority 2008, dated 2013).
